This passage reports IC90 results from PubChem BioAssay AID434955 (Southern Research Specialized Biocontainment Screening …, 2010).

Each structure is given as a SMILES string.

This assay concerns M. tuberculosis H37Rv growth with meropenem, percent inhibition. In words: beta-lactam sensitization of Mtb H37Rv, H37Rv (AID 434955).
For the molecule `O=C(Oc1c(-c2ccccc2)c(=O)n2c3c(cccc13)CC2)c1cccc([N+](=O)[O-])c1`, the IC90 is 62.3 µM.

Turning to `Cc1ccc(Nc2nc(N)nc(CC#N)n2)cc1`, the IC90 is 92.7 µM.

Consider `Cc1cccc(OCc2nc(-c3ccccn3)n[nH]2)c1`, for which the IC90 was 7.37 µM.

As for `CC(C)(C)NCCCOc1ccc(Cl)cc1C(C)(C)C`, the IC90 was 26.9 µM.

Turning to `O=C(Nc1nc2ccccc2n1CCN1CCCC1)C1CCCCC1`, the IC90 was 27.5 µM.

In the case of `Nc1ncnc2c1c(-c1ccc(Oc3ccccc3)cc1)cn2C1CCCC1`, the IC90 is 60.3 µM.

Consider `COc1cc2nc(N3CCN(C(=O)OCc4ccccc4)[C@H](C(=O)NC(C)(C)C)C3)nc(N)c2cc1OC`, for which the IC90 was 84 µM.

As to `O=C1CS/C(=N/N=C2C3CC4CC(C3)CC2C4)N1`, the IC90 is 13.8 µM.

Take `Cc1c(C=O)c(C=O)c(C)n1Cc1ccccc1`: the IC90 is 69.3 µM.

Regarding `C/C(CC(=O)Nc1c(C)cc(C)cc1C)=N\NC(=O)c1cnccn1`, the IC90 was 17.4 µM.

With `N#Cc1c(SCC(=O)O)nc(N2CCCCC2)c2c1CCCC2`, the IC90 was 27 µM.

As to `COCCSc1nc2sc3c(c2c(=O)n1-c1ccccc1)CCN(C)C3`, the IC90 is 53.3 µM.

For `CCCOc1ccc(C(=O)CCN2CCCCC2)cc1`, the IC90 was 36.4 µM.

Turning to `O=C(/C=C/c1ccccn1)c1cc(Br)ccc1O`, the IC90 was 45.1 µM.

On to `COc1cccc(/C=N/NC(=O)NC23CC4CC(CC(C4)C2)C3)c1O`, for which the IC90 is 26.8 µM.

As to `CCCCNC(=O)c1onc(CSc2ccc(OC)cc2)c1C(=O)O`, the IC90 is 27.2 µM.

As for `COc1cc(C(=O)Nc2cccc(-c3cn4cccnc4n3)c2)cc(OC)c1OC`, the IC90 is 30.2 µM.

In the case of `O=C(N/N=C/c1ccc(OC(=O)c2ccc3c(c2)OCO3)cc1)c1cncc(Br)c1`, the IC90 is 48.3 µM.

`CC(C)(C)c1nn(-c2ccccc2)c2[nH]c(=O)c(CNc3ccc4c(c3)OCCO4)cc12`: the IC90 was 99.7 µM.

With `CC(=O)Nc1ccc(SCC(=O)c2cc(C)n(C)c2C)cc1`, the IC90 is 53.6 µM.

In the case of `O=C(N/N=C/c1ccc([N+](=O)[O-])o1)c1ccccc1-n1cccc1`, the IC90 was 29.4 µM.

With `Cc1noc(NS(=O)(=O)c2ccc(N/C=C\C(=O)c3ccc4c(c3)OCO4)cc2)c1C`, the IC90 was 86 µM.

Take `Cn1c(=O)c2ccccc2n2c(CCl)nnc12`: the IC90 is 4.65 µM.

With `C=CCN=c1scc(-c2ccc(F)cc2)n1/N=C/c1ccccn1`, the IC90 is 71.7 µM.

As for `O=c1oc(-c2ccccc2F)nc2scc(-c3ccccc3)c12`, the IC90 was 3.05 µM.

On to `C[C@H]1C=CC(=O)O[C@H]1c1ccccc1`, for which the IC90 was 49.5 µM.

Take `O=C1C(Cl)=C(N2CCCCCC2)C(=O)N1c1ccc(Br)cc1`: the IC90 is 19.4 µM.

For the molecule `CC1(C)CCN2CCC(C)(C)c3c(O)ccc1c32`, the IC90 is 49.3 µM.

Consider `O=C(Cc1ccc(Cl)cc1Cl)Nc1ccc(OC(F)F)c(Cl)c1`, for which the IC90 is 13.7 µM.

In the case of `Cc1cc(C=C2C(=O)NC(=S)NC2=O)c(C)n1-c1ccc2c(c1)OCO2`, the IC90 was 14.5 µM.

Consider `Cc1ccc(C(C)C)c(OCc2ccc(C(=O)N/N=C/c3ccc(C(=O)O)cc3)cc2)c1`, for which the IC90 was 49.5 µM.

Turning to `CCCC(C)NC(=O)c1ccc(OCc2ccc(Cl)cc2)c(OC)c1` (configuration not stated), the IC90 was 11.6 µM.

On to `CC[C@@](C)(NS(=O)(=O)OCC(Cl)(Cl)Cl)c1ccccc1`, for which the IC90 was 54.8 µM.

`COc1ccc(NC(=O)c2cc(C)nc3ccccc23)c(OC)c1`: the IC90 was 12.9 µM.

For the molecule `c1ccc(-c2n[nH]c3c2CCC3)cc1`, the concentration for an effect of 90% (IC90) was 46.3 µM.

For the molecule `CCOC(=O)CNC(=O)/C(=C\c1ccc(F)cc1)NC(=O)c1ccccc1`, the 90% effect concentration (IC90) is 35.1 µM.

Take `COc1cc(C(=O)N/N=C/c2ccc(OC(=O)c3cccc(C)c3)cc2)ccc1O`: the IC90 was 53.4 µM.

With `COc1cc(/C(C)=N\NC(N)=S)cc(OC)c1OC`, the IC90 was 19.6 µM.

For the molecule `CCCCCCCN(C(=O)CCl)c1ccccc1C`, the IC90 is 35.2 µM.

With `C=CCNC1=C(Cl)C(=O)N(c2cccc(Cl)c2Cl)C1=O`, the IC90 is 30.2 µM.

On to `CO/N=C(\C(=O)N[C@@H]1C(=O)N2C(C(=O)O)=C(COC(C)=O)CS[C@H]12)c1csc(N)n1` (stereo in doubt), for which the IC90 is 41.7 µM.

On to `CCC(C)NCCOCCOc1ccc(Cl)c2ccccc12` (configuration not stated), for which the IC90 is 50.7 µM.

In the case of `CCCc1cc(C(=O)Nc2ccc(C(C)=O)cc2)no1`, the IC90 was 48.8 µM.

As to `CC(O)/C=C/c1ccc2ccccc2n1` (configuration not stated), the IC90 is 57.5 µM.

Regarding `O=C(CCl)N(c1ccccc1)C1CCS(=O)(=O)C1` (configuration not stated), the IC90 was 13.9 µM.

With `O=C(COC(=O)c1ccc(Cl)cc1[N+](=O)[O-])NNC(=O)c1cccs1`, the IC90 was 51.1 µM.

Regarding `COCc1cc(=O)n2[nH]cc(-c3ccccc3)c2n1`, the IC90 was 15.5 µM.

As for `CCCCNC(=O)c1onc(CSc2ccc(F)c(F)c2)c1C(=O)O`, the IC90 is 56.8 µM.

In the case of `c1ccc(-n2c3ccccc3c3ccccc32)cc1`, the IC90 is 22.7 µM.

On to `O=c1c2cc(Cl)ccc2[nH]c(=S)n1Cc1cccs1`, for which the IC90 is 13.2 µM.

In the case of `COc1ccccc1NS(=O)(=O)c1cccc(N2CC(O)=C(c3ccccc3)C2=N)c1`, the IC90 was 16 µM.

Consider `c1ccc2c(c1)Cn1nc(Cc3nc4c(s3)CCCC4)nc1-2`, for which the IC90 was 53 µM.

On to `COc1ccc(OC)c(-c2cc(C(=O)Nc3c(C)n(C)n(-c4ccccc4)c3=O)no2)c1`, for which the IC90 is 49.5 µM.

As for `CCOc1ccc(N=c2cc(-c3ccc(OC)cc3)oc3ccccc23)cc1`, the IC90 is 50.3 µM.

Consider `COc1ccccc1N1CCN(CC(=O)Nc2cc(F)ccc2C)CC1`, for which the IC90 was 91 µM.

For `COc1ccc(C(=O)NC(=S)Nc2ccc(S(=O)(=O)Nc3cc(C)on3)cc2)cc1OC`, the IC90 was 29 µM.

For `O=C(CSc1nnc(-c2ccncc2)o1)c1cccc([N+](=O)[O-])c1`, the IC90 is 45.4 µM.

Take `Cc1[nH]n(-c2ccccc2)c(=O)c1/C=N/NC(=O)c1ccoc1C`: the IC90 is 3.01 µM.

For the molecule `O=C(CCN1CCOCC1)c1ccc(N2CCCCC2)cc1`, the IC90 was 72.7 µM.

Turning to `CC(=O)c1ccc(OC(=O)N(c2ccccc2)c2ccccc2)cc1`, the IC90 is 32.9 µM.

On to `O=C(/C=C/c1ccc([N+](=O)[O-])cc1)c1cccs1`, for which the IC90 was 12.2 µM.

As for `CN1c2ccccc2C(=O)NC1c1ccc([N+](=O)[O-])s1` (configuration not stated), the IC90 is 33.3 µM.

In the case of `O=C1Nc2c(ccc(Cl)c2Cl)C(=O)C1(F)c1ccccc1` (configuration not stated), the IC90 was 71.7 µM.

For the molecule `CN(C)S(=O)(=O)c1ccc(C(=O)/C=C/c2cccnc2)cc1`, the IC90 was 12.1 µM.

As to `O=C(Cc1cccc2ccccc12)N/N=C/c1ccc(O)c([N+](=O)[O-])c1`, the IC90 was 31.6 µM.

With `Nc1ccc(C(=O)O)c(O)c1`, the IC90 is 1.88 µM.

Turning to `COc1cccc(C(=O)C2CCCN(Cc3ccccn3)C2)c1` (configuration not stated), the IC90 is 97.5 µM.

For the molecule `O=C1OC(/C=C/c2ccccc2)=NC/1=C/c1ccco1`, the IC90 is 13.9 µM.

`COc1ccc(C(=O)CN(C(=O)c2ccc(Cl)cc2)N2C(=O)c3ccccc3C2=O)cc1`: the IC90 is 22.4 µM.

In the case of `CCOc1ccc(S(=O)(=O)N(C(=O)c2ccco2)c2cc3sc(=O)oc3c3ccccc23)cc1`, the IC90 is 46.9 µM.

As to `CN(C(=O)Nc1ccc(Cl)cc1)n1cnc2ccccc2c1=O`, the IC90 was 48.6 µM.

Consider `S=C(NNc1ccc2ccccc2c1)NC1CCCCC1`, for which the IC90 is 41.3 µM.

For `CC1CCN(CC(CS(=O)(=O)c2ccc([N+](=O)[O-])cc2)N2CCC(C)CC2)CC1` (configuration not stated), the IC90 was 31.5 µM.

In the case of `C/C(=N/NC(=O)c1cccs1)c1c(C)[nH]n(-c2nc3ccccc3s2)c1=O`, the IC90 is 1.58 µM.

On to `OCCCc1cn(-c2ccccc2)c2ccccc12`, for which the IC90 is 60.8 µM.

As for `Cc1ccc(C)c(N2CCN(C3CCCC(C)C3)CC2)c1` (configuration not stated), the IC90 was 48.2 µM.

In the case of `Cc1cc(C2C(=O)c3ccccc3C2=O)c(C)c(C)c1C`, the IC90 was 16.4 µM.

`CCc1cc(C(=O)O)c(NC(=O)/C=C/c2ccc(OC)cc2)s1`: the IC90 was 59.7 µM.

On to `Cc1cc(C)n(-c2nc3ccccc3c(=O)n2OCC(=O)N(C)C)n1`, for which the IC90 is 23.3 µM.

Take `CCOc1ccc2c(c1)c(C(C)=O)c(C)n2-c1ccccc1`: the concentration for an effect of 90% (IC90) is 1.96 µM.

Take `CCOC(=O)COc1ccc2nsnc2c1`: the IC90 was 26 µM.

Take `COc1ccc(C2(CNC(=O)c3cc([N+](=O)[O-])cc([N+](=O)[O-])c3)CCCC2)cc1OC`: the IC90 is 1.61 µM.

For the molecule `O=C(O)CCN1C(=O)/C(=C/c2ccc(-c3nc4ccccc4s3)o2)SC1=S`, the IC90 was 78.4 µM.

`c1ccc(-c2cc(N3CCOCC3)nc3ccccc23)cc1`: the IC90 is 91.5 µM.

Consider `COc1cc(C(=O)Oc2cccnc2)cc(OC)c1OC`, for which the IC90 is 13.6 µM.

In the case of `CCc1cc2c(-c3ccccc3)cc(=O)oc2cc1OC(C)C(C)=O` (configuration not stated), the IC90 is 48.5 µM.

As for `CN(C)/N=C/c1ccc(/C=N/NC(N)=S)o1`, the IC90 is 43.3 µM.

For `COCCCn1c(=O)/c(=C\c2ccccc2OC(C)C)s/c1=C(/C#N)C(=O)Nc1ccc(C(=O)O)cc1`, the IC90 is 18.5 µM.

`Cc1ccc(C(=O)N/C(=C\c2ccc(-c3ccc(Cl)cc3)o2)C(=O)NCCCN(C)C)cc1`: the IC90 was 23.7 µM.

Take `Cc1cc(=O)[nH]c(N/N=C/c2c(O)n(-c3ccccc3)c(=O)c3ccccc23)n1`: the IC90 is 13.6 µM.

For `O=c1c2c3n(c(=S)nc2[nH]n1-c1ccccc1)CCCCC3`, the IC90 is 13.3 µM.

As to `CCOC(=O)c1cnc2cc(-c3ccc(C(C)(C)C)cc3)nn2c1N`, the IC90 was 5.74 µM.

For the molecule `C=C1C(=O)O[C@@H]2[C@H]1[C@@H](OC(=O)/C(C)=C/C)C/C(C)=C\C(=O)/C=C(\C)[C@@H]2O`, the IC90 is 25.2 µM.

On to `CC(NC(=O)CSc1nc2ccccc2c(=O)[nH]1)c1ccccc1` (configuration not stated), for which the 90% effect concentration (IC90) was 60.9 µM.

Regarding `CC1CCCN(C(=O)C2CCN(c3ncnc4c3nc3n4CCCCC3)CC2)C1` (configuration not stated), the IC90 was 49.7 µM.

As for `O=C(NCC1COc2ccccc2O1)C1CCC(CNc2c(N3CCCCC3)c(=O)c2=O)CC1` (configuration not stated), the IC90 was 26.7 µM.

For the molecule `COc1ccc(/C=C/C(=O)N(C(C)C)C(C)C)cc1Br`, the IC90 is 96.4 µM.

For `C/C(=N\OCC(=O)Nc1nc2ccccc2s1)c1ccccc1`, the IC90 was 35.6 µM.

Turning to `Cc1cccc(Cl)c1NC(=S)NN`, the IC90 is 55.1 µM.

As for `CC(C)(C)C1=Nn2c(nnc2-c2ccccc2F)SC1`, the IC90 is 78.3 µM.

Take `Cc1ccc(C)c(CSc2nnc(C)c(=O)n2N)c1`: the IC90 is 20.4 µM.

`CCCCC12CN3CC(C)(CN(C1)C3c1ccc([N+](=O)[O-])o1)C2=O` (configuration not stated): the IC90 is 23.5 µM.
